{
  "source": "ChEMBL document CHEMBL1149958",
  "about": "“Conformationally restricted piperidinyl benzamides as 5-HT3 receptor antagonists” (Bioorg Med Chem Lett, 1992)",
  "key": {"Rattus norvegicus": {"tested_on": "Rattus norvegicus", "test": "Antagonist potency towards serotonin 5-HT3 receptor was determined by inhibition of 5-HT induced bradycardia (Bezold-Jarisch reflex) in anaesthetized rat", "format": "functional", "details": "for ED50: Rattus norvegicus, read-out: ID50 (the source's name)"}, "[1]": {"test": "pKA value was determined", "format": "physicochemical"}},
  "data": [
    {"compound": "COc1cc(N)c(Cl)cc1C(=O)NC1CCN2CCCC2C1", "note": "(stereo in doubt; 4a)", "values": [
      {"measurement": "ID50", "setting": "Rattus norvegicus", "result": ">1", "unit": "mg/kg"}
    ]},
    {"compound": "COc1cc(N)c(Cl)cc1C(=O)NC1CCN2CCOCC2C1", "note": "(stereo unspecified)", "values": [
      {"measurement": "pKa", "setting": "[1]", "result": 6.3},
      {"measurement": "ED50", "setting": "Rattus norvegicus", "result": 0.017, "unit": "mg/kg"}
    ]},
    {"compound": "COc1cc(N)c(Cl)cc1C(=O)NC1CCN2CCCC2C1", "note": "(stereo in doubt; 4b)", "values": [
      {"measurement": "ID50", "setting": "Rattus norvegicus", "result": 0.024, "unit": "mg/kg"}
    ]},
    {"compound": "CCN(CC)CCNC(=O)c1cc(Cl)c(N)cc1OC", "note": "[METOCLOPRAMIDE]", "values": [
      {"measurement": "ED50", "setting": "Rattus norvegicus", "result": 0.5, "unit": "mg/kg"}
    ]},
    {"compound": "COc1cc(N)c(Cl)cc1C(=O)NC1CCN2C(C)COCC2C1", "note": "(stereo unspecified)", "values": [
      {"measurement": "ED50", "setting": "Rattus norvegicus", "result": 0.0095, "unit": "mg/kg"}
    ]},
    {"compound": "COc1cc(N)c(Cl)cc1C(=O)NC1CCN2C(C)CCC2C1", "note": "(stereo unspecified)", "values": [
      {"measurement": "ED50", "setting": "Rattus norvegicus", "result": 0.012, "unit": "mg/kg"}
    ]},
    {"compound": "CN1[C@@H]2CC[C@H]1C[C@@H](OC(=O)c1c[nH]c3ccccc13)C2", "note": "[TROPISETRON]", "values": [
      {"measurement": "ED50", "setting": "Rattus norvegicus", "result": 0.0014, "unit": "mg/kg"}
    ]},
    {"compound": "COc1cc(N)c(Cl)cc1C(=O)NC1CCN2C(C)CCCC2C1", "note": "(stereo unspecified) [BRL-20627]", "values": [
      {"measurement": "pKa", "setting": "[1]", "result": 9.2},
      {"measurement": "ED50", "setting": "Rattus norvegicus", "result": 0.225, "unit": "mg/kg"}
    ]},
    {"compound": "COc1cc(N)c(Cl)cc1C(=O)NC1CC(C)N2CCCC2C1", "note": "(stereo unspecified)", "values": [
      {"measurement": "ED50", "setting": "Rattus norvegicus", "result": 0.29, "unit": "mg/kg"}
    ]}
  ]
}
